{
  "source": "paper PMC6193938",
  "about": "“Characterization of a novel AICARFT inhibitor which potently elevates ZMP and has anti-tumor activity in murine models” (Scientific Reports, 2018)",
  "key": {"ALK": {"target": "T1, ALK (Homo sapiens, UniProt Q9UM73)", "T1 construct": "purchased CEREP Panlabs (Eurofins)", "T1 sequence (Q9UM73 19-1620)": "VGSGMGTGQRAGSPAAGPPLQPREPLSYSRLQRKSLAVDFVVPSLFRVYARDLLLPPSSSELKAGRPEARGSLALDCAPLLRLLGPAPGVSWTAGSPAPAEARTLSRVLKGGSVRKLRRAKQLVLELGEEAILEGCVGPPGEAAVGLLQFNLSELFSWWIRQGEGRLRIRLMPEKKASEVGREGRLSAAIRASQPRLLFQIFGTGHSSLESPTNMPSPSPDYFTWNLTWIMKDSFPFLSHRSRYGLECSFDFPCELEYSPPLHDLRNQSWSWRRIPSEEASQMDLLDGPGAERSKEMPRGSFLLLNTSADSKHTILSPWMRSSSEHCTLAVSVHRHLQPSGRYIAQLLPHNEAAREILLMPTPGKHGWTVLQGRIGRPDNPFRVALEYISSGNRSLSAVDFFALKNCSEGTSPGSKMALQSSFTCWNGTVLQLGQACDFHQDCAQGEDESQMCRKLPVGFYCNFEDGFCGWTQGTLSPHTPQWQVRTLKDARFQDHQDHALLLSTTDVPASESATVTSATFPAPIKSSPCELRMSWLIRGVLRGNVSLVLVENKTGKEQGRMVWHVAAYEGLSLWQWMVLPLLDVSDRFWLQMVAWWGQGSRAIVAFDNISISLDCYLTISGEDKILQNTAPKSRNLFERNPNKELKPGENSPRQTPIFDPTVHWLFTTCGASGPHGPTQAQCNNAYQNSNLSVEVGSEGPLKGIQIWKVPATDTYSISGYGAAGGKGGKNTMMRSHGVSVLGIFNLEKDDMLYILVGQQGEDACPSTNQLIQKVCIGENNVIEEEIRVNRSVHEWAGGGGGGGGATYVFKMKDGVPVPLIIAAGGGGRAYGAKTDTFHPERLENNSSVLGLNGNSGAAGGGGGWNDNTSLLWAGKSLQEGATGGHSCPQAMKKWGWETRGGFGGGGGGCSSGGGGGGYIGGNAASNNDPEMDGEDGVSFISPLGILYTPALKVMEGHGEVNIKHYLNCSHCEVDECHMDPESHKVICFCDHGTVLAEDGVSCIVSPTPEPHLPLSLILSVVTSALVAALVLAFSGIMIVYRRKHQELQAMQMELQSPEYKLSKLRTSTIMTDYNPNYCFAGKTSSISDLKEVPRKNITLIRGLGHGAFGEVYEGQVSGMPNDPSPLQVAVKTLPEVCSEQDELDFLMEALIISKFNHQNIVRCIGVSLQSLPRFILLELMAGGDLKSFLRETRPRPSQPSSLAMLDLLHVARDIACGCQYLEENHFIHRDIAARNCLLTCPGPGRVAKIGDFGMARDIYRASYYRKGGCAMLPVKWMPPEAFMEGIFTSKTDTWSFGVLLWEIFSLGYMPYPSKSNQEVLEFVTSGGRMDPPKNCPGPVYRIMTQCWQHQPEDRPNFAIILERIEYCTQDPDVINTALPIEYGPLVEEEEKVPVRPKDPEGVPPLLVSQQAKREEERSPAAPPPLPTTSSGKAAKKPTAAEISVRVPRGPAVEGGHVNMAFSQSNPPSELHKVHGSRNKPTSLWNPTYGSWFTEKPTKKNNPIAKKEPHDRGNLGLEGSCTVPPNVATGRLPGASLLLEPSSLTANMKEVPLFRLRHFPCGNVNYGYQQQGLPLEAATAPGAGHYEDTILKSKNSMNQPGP", "assay": "CEREP protein kinase assay", "type": "biochemical"}, "STK33": {"target": "T2, STK33 (Homo sapiens, UniProt Q9BYT3)", "T2 construct": "purchased CEREP Panlabs (Eurofins)", "T2 sequence (Q9BYT3 whole entry)": "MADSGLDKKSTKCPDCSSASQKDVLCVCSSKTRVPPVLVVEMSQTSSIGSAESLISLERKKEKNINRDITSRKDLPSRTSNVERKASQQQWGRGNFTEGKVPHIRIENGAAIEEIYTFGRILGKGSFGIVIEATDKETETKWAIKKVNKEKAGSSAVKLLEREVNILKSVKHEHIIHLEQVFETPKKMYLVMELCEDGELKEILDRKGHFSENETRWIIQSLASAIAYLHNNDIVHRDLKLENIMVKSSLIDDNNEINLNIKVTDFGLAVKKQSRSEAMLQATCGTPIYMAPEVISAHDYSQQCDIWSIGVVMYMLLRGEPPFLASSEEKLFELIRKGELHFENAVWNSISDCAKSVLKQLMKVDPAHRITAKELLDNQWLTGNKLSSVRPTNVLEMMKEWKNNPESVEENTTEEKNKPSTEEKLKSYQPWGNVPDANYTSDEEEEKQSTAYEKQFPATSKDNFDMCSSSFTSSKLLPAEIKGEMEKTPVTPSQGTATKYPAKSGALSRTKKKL", "assay": "CEREP protein kinase assay", "type": "biochemical"}, "IRK": {"target": "T3, IRK (Homo sapiens, UniProt P06213)", "T3 construct": "purchased CEREP Panlabs (Eurofins)", "T3 sequence (P06213 28-1382)": "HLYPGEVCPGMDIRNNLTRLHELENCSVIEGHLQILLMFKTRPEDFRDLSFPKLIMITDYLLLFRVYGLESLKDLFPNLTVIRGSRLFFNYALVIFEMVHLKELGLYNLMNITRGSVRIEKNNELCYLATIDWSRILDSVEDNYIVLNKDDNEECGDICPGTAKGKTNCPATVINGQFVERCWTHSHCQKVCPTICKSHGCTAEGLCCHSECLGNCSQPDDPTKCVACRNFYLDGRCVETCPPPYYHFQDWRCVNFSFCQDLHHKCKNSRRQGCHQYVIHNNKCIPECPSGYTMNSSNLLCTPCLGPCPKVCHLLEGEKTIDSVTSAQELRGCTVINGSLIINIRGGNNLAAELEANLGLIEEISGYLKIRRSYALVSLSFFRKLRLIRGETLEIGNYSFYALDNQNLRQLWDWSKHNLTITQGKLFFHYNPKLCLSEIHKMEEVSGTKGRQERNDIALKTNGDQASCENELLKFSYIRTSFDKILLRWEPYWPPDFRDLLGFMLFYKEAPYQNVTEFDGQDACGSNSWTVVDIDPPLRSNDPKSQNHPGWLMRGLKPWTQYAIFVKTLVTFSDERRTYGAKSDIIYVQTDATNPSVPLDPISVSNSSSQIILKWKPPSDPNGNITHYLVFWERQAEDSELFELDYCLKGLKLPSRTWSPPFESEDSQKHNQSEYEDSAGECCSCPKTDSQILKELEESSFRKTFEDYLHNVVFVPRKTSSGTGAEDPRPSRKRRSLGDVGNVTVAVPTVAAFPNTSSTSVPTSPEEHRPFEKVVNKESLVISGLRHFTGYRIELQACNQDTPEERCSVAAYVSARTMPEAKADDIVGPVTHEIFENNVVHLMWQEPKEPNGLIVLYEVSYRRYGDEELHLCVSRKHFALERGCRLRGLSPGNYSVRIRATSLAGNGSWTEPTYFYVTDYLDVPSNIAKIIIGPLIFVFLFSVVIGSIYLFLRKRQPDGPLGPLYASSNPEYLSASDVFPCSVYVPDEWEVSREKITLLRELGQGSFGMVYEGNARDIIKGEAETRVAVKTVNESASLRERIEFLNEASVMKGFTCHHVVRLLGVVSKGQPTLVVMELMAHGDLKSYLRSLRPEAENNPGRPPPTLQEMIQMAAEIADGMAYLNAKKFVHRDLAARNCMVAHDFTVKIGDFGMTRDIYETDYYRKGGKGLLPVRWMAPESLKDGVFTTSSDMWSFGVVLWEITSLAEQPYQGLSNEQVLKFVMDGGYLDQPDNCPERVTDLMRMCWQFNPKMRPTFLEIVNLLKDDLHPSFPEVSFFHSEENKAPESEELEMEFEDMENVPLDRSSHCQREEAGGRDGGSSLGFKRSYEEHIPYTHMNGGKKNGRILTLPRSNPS", "assay": "CEREP protein kinase assay", "type": "biochemical"}, "KIT": {"target": "T4, KIT (Homo sapiens, UniProt P10721)", "T4 construct": "purchased CEREP Panlabs (Eurofins)", "assay": "CEREP protein kinase assay", "type": "biochemical"}, "IKKe": {"target": "T5, IKKe (Homo sapiens, UniProt Q14164)", "T5 construct": "purchased CEREP Panlabs (Eurofins)", "T5 sequence (Q14164 1-716)": "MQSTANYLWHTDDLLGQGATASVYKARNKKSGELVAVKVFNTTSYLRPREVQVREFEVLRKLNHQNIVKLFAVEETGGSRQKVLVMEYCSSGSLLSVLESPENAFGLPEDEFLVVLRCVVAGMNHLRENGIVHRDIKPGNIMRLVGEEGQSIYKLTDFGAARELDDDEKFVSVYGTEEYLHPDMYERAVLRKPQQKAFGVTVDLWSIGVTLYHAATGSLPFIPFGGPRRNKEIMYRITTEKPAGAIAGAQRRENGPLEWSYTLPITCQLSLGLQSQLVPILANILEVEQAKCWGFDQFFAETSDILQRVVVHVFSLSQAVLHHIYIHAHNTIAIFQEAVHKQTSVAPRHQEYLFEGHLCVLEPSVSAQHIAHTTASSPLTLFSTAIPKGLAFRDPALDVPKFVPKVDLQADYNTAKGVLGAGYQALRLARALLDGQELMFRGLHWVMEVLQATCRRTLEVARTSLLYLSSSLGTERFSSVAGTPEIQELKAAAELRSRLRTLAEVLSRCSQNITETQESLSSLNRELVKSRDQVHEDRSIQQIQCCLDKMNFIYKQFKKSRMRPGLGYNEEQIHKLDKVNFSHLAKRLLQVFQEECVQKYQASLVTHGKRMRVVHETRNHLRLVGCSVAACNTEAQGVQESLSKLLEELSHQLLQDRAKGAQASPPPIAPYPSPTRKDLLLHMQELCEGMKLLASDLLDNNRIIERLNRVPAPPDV", "assay": "CEREP protein kinase assay", "type": "biochemical"}, "ROCK2": {"target": "T6, ROCK2 (Homo sapiens, UniProt O75116)", "T6 construct": "purchased CEREP Panlabs (Eurofins)", "T6 sequence (O75116 whole entry)": "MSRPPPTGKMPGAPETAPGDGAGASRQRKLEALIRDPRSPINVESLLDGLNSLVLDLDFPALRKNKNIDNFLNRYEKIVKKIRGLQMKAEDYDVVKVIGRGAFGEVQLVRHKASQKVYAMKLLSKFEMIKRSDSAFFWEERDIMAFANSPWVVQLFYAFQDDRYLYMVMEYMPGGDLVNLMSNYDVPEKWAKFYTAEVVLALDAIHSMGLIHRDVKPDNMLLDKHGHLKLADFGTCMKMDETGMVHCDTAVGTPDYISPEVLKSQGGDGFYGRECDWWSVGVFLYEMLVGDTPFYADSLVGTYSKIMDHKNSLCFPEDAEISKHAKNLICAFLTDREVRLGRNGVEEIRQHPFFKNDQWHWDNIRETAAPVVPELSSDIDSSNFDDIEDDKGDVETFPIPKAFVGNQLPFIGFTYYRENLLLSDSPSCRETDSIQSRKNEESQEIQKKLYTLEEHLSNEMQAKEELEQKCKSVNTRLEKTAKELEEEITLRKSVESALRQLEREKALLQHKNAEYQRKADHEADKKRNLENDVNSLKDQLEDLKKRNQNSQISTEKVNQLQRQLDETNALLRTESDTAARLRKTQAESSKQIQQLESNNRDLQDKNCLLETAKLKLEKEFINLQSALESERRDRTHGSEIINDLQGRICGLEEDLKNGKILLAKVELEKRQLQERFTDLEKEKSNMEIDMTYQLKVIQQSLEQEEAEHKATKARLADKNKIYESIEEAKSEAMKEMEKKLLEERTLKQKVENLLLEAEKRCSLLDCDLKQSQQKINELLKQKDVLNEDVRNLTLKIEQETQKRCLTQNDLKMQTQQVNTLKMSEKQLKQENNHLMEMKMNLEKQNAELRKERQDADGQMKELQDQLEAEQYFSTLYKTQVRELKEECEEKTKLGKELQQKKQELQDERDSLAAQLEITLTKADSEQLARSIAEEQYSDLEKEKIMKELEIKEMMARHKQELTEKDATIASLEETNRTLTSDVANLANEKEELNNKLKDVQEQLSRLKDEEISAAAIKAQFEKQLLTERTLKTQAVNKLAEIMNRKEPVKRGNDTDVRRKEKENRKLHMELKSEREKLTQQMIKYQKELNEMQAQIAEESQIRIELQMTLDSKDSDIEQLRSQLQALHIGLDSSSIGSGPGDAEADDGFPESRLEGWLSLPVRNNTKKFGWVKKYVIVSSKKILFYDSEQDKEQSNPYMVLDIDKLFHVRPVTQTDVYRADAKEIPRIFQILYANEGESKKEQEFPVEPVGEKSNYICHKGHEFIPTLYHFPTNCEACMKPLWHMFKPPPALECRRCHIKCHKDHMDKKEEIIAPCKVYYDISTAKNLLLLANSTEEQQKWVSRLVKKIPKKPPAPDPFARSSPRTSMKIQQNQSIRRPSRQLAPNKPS", "assay": "CEREP protein kinase assay", "type": "biochemical"}, "IKKb": {"target": "T7, IKKb (Homo sapiens, UniProt O14920)", "T7 construct": "purchased CEREP Panlabs (Eurofins)", "T7 sequence (O14920 1-756)": "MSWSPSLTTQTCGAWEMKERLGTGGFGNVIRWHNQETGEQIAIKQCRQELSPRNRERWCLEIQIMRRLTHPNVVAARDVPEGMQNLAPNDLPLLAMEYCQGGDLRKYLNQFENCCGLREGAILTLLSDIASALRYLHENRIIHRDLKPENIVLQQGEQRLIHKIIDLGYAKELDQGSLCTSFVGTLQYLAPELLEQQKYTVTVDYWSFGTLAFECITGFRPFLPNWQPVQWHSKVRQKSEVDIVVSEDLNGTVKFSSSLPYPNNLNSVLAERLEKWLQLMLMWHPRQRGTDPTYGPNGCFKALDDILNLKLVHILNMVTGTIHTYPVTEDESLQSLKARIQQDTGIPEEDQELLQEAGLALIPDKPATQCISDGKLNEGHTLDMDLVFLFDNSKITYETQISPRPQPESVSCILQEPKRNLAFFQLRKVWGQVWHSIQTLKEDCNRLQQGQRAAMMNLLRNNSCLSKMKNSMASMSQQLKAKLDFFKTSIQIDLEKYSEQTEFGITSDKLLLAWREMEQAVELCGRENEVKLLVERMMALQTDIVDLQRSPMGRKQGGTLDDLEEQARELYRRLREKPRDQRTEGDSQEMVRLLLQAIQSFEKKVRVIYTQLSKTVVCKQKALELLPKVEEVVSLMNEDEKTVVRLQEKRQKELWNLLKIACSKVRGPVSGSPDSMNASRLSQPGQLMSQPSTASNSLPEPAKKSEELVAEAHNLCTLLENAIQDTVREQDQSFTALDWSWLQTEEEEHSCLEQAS", "assay": "CEREP protein kinase assay", "type": "biochemical"}, "CDK7": {"target": "T8, CDK7 (Homo sapiens, UniProt P50613)", "T8 construct": "purchased CEREP Panlabs (Eurofins)", "assay": "CEREP protein kinase assay", "type": "biochemical"}, "PYK2": {"target": "T9, PYK2 (Homo sapiens, UniProt Q14289)", "T9 construct": "purchased CEREP Panlabs (Eurofins)", "assay": "CEREP protein kinase assay", "type": "biochemical"}, "MDA-MB-231": {"system": "MDA-MB-231", "assay": "In vitro proliferation assay, Cell Titer Glo", "type": "cell-based", "conditions": "Homo sapiens", "text": "Cell Titer Glo measures ATP, thus the IC50s represent both the effect on purine production and cell proliferation, which are related. […] Folates are actively taken up in cells by reduced folate carrier (SLC19A1), proton-coupled folate transporter (SLC46A1), and the FOLR1 folate receptor[17]. Once inside the cell, folates are trapped by polyglutamation catalyzed by folylpolyglutamate synthetase (FPGS). […] Gene expression data for ATIC, GART, APRT, HPRT, FOLR1, SLC19A1, SLC46A1 & FPGS are shown in Fig. 2, since these genes were anticipated to predict sensitivity. […] The MDA-MB-231 cell line is reduced folate carrier (SLC19A1) negative due to epigenetic silencing.\nCells were cultured using recommended culture conditions unless noted otherwise (Supplemental Table 3). Cells were plated, dosed with compound and incubated at 37 °C for approximately 2 doubling times as determined for each cell line. Cell Titer Glo (Promega) assay was used to measure proliferation according to manufacturer’s recommendations by measuring luminescence with Flexstation3 (Molecular Devices) with 500 ms integration time. […] The % response was fit to a four-parameter logistic equation using ACTIVITYBASE 4.0 to determine the absolute IC50 values."}},
  "note": "pIC50: −log10 of the molar value. Like-named read-outs stand apart in the source and are kept apart here.",
  "data": [
    {"smiles": "O=c1[nH]ccc2cc(F)c(NS(=O)(=O)c3ccc(N4CC[C@@H](O)C4)s3)cc12", "note": "[LSN3213128, N-(6-Fluoro-1-oxo-1,2-dihydroisoquinolin-7-yl)-5-[(3R)-3-hydroxypyrrolidin-1-yl]thiophene-2-sulfonamide]", "values": [
      {"measurement": "inhibition at 0.2 µM", "setting": "ALK; @ 0.2 uM", "result": -16.7, "unit": "%"},
      {"measurement": "inhibition at 2 µM", "setting": "ALK; @ 2 uM", "result": 7.47, "unit": "%"},
      {"measurement": "inhibition at 20 µM", "setting": "ALK; @ 20 uM", "result": 31.8, "unit": "%"},
      {"measurement": "inhibition at 0.2 µM", "setting": "STK33; @ 0.2 uM", "result": -5.61, "unit": "%"},
      {"measurement": "inhibition at 2 µM", "setting": "STK33; @ 2 uM", "result": 15.3, "unit": "%"},
      {"measurement": "inhibition at 20 µM", "setting": "STK33; @ 20 uM", "result": -1.42, "unit": "%"},
      {"measurement": "inhibition at 0.2 µM", "setting": "IRK; @ 0.2 uM", "result": -0.8, "unit": "%"},
      {"measurement": "inhibition at 2 µM", "setting": "IRK; @ 2 uM", "result": 10.6, "unit": "%"},
      {"measurement": "inhibition at 20 µM", "setting": "IRK; @ 20 uM", "result": 12.9, "unit": "%"},
      {"measurement": "inhibition at 0.2 µM", "setting": "KIT; @ 0.2 uM", "result": -6.65, "unit": "%"},
      {"measurement": "inhibition at 2 µM", "setting": "KIT; @ 2 uM", "result": 6.65, "unit": "%"},
      {"measurement": "inhibition at 20 µM", "setting": "KIT; @ 20 uM", "result": 42, "unit": "%"},
      {"measurement": "inhibition at 0.2 µM", "setting": "IKKe; @ 0.2 uM", "result": -0.0712, "unit": "%"},
      {"measurement": "inhibition at 2 µM", "setting": "IKKe; @ 2 uM", "result": 8.91, "unit": "%"},
      {"measurement": "inhibition at 20 µM", "setting": "IKKe; @ 20 uM", "result": 11.7, "unit": "%"},
      {"measurement": "inhibition at 0.2 µM", "setting": "ROCK2; @ 0.2 uM", "result": -3.09, "unit": "%"},
      {"measurement": "inhibition at 2 µM", "setting": "ROCK2; @ 2 uM", "result": 4.72, "unit": "%"},
      {"measurement": "inhibition at 20 µM", "setting": "ROCK2; @ 20 uM", "result": 5.81, "unit": "%"},
      {"measurement": "inhibition at 0.2 µM", "setting": "IKKb; @ 0.2 uM", "result": -6.4, "unit": "%"},
      {"measurement": "inhibition at 2 µM", "setting": "IKKb; @ 2 uM", "result": 0.126, "unit": "%"},
      {"measurement": "inhibition at 20 µM", "setting": "IKKb; @ 20 uM", "result": 4.91, "unit": "%"},
      {"measurement": "inhibition at 0.2 µM", "setting": "CDK7; @ 0.2 uM", "result": -17, "unit": "%"},
      {"measurement": "inhibition at 2 µM", "setting": "CDK7; @ 2 uM", "result": 2.91, "unit": "%"},
      {"measurement": "inhibition at 20 µM", "setting": "CDK7; @ 20 uM", "result": 15, "unit": "%"},
      {"measurement": "inhibition at 0.2 µM", "setting": "PYK2; @ 0.2 uM", "result": -25.1, "unit": "%"},
      {"measurement": "inhibition at 2 µM", "setting": "PYK2; @ 2 uM", "result": -1.17, "unit": "%"},
      {"measurement": "inhibition at 20 µM", "setting": "PYK2; @ 20 uM", "result": 16.5, "unit": "%"},
      {"measurement": "pIC50", "setting": "MDA-MB-231; MDA-MB-231, breast, read-out: ABS_IC50_VALUE", "result": 7.70},
      {"measurement": "pIC50", "setting": "MDA-MB-231; MDA-MB-231, Cell Titer Glo, two doubling times, read-out: IC50 by CTG", "result": 8.12}
    ]}
  ]
}
